Measurements as given in ChEMBL document CHEMBL4359918, “Discovery of tissue selective liver X receptor agonists for the treatment of atherosclerosis without causing hepatic lipogenesis” (Eur J Med Chem, 2019).
The source made the active and inactive calls. The rule behind the calls is not given here.

Experiments:
[1] = biological target: T1, LXRalpha (Oxysterols receptor LXR-alpha) (Homo sapiens, UniProt Q13133); experiment: Agonist activity at human LXRalpha transfected in HEK293T cells at 10 uM incubated for 20 hrs by luciferase reporter gene assay relative to control; assay type: cell-based; details: HEK293T cells transfected with human LXRalpha, read-out: FC
T1 sequence (Q13133 whole entry): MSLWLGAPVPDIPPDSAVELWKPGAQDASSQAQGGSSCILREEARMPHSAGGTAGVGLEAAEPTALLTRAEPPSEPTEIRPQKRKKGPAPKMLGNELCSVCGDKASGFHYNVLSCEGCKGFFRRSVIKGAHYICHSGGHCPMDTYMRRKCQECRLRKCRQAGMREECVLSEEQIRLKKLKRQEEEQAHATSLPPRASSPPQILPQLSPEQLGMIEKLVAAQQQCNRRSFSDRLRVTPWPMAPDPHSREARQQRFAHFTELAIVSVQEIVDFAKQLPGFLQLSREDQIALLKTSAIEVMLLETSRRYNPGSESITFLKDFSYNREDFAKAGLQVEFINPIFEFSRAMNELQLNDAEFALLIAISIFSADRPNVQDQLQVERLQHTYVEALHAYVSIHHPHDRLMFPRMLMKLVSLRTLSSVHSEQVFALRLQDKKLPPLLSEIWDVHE

[2] = biological target: T2, Oxysterols receptor LXR-beta (Rattus norvegicus) (UniProt Q62755); experiment: Agonist activity at rat LXRbeta transfected in HEK293T cells at 10 uM incubated for 20 hrs by luciferase reporter gene assay relative to control; assay type: cell-based
T2 sequence (whole entry): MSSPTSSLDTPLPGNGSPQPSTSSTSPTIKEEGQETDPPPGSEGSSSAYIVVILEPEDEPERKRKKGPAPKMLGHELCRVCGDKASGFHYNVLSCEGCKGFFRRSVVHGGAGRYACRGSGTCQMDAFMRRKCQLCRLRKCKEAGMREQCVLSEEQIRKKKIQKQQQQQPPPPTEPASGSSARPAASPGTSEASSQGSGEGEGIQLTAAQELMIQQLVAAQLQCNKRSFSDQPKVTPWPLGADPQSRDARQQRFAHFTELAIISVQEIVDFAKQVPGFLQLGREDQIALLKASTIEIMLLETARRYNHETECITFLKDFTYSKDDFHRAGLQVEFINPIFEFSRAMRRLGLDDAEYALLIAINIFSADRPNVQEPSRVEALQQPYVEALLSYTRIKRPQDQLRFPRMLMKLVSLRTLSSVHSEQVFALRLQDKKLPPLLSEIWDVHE

HEK-293T = experiment: Cytotoxicity against HEK293T cells assessed as reduction in cell viability at […] incubated for 24 hrs by MTT assay; assay type: cell-based; details: human
[3] = Selectivity index, ratio of compound effect for agonist activity at human LXRalpha to compound effect for agonist activity at […]
[4] = biological target: T3, Oxysterols receptor LXR-alpha (Homo sapiens) (UniProt Q13133); experiment: Agonist activity at human LXRalpha transfected in HEK293T cells at 10 uM incubated for 20 hrs in presence of LXR antagonist SR9243 by luciferase reporter gene assay relative to control; assay type: cell-based
T3 sequence (whole entry): T1 sequence (Q13133 whole entry)

PBMC = experiment: Anti-atherosclerotic activity in C57BL/6 mouse PBMC assessed as inhibition of ox-LDL induced lipid accumulation at 10 uM incubated for 48 hrs by ORO staining based microscopic analysis; assay type: functional, cell-based
RAW264.7 [5] = experiment: Anti-atherosclerotic activity in mouse RAW264.7 cells assessed as inhibition of ox-LDL induced lipid accumulation at 10 uM incubated for 48 hrs by ORO staining based microscopic analysis; assay type: functional, cell-based
RAW264.7 [6] = experiment: Agonist activity at LXR in mouse RAW264.7 cells assessed as increase in ABCA1 mRNA expression at 10 uM incubated for 48 hrs by qPCR analysis; assay type: cell-based
Mus musculus = organism: Mus musculus; experiment: Agonist activity at LXR in C57BL/6 mouse PBMC assessed as increase in ABCA1 mRNA expression at 10 uM incubated for 48 hrs by qPCR analysis
HepG2 [7] = experiment: Lipid lowering activity in human HepG2 cells assessed as decrease in OA-induced TG accumulation at 10 uM incubated for 24 hrs; assay type: functional, cell-based
HepG2 [8] = experiment: Effect on TG accumulation in human HepG2 cells at 10 uM incubated for 24 hrs; assay type: ADME, cell-based; details: hepg2, 24 h
[9] = biological target: Liver X receptor (Homo sapiens) (UniProt Q13133+P55055); experiment: Agonist activity at LXR in human HepG2 cells assessed as increase in ABCA1 mRNA expression at 10 uM incubated for 24 hrs by qPCR analysis; assay type: cell-based
Sequence of Liver X receptor (Homo sapiens) (P55055 whole entry, looked up, one chain of several): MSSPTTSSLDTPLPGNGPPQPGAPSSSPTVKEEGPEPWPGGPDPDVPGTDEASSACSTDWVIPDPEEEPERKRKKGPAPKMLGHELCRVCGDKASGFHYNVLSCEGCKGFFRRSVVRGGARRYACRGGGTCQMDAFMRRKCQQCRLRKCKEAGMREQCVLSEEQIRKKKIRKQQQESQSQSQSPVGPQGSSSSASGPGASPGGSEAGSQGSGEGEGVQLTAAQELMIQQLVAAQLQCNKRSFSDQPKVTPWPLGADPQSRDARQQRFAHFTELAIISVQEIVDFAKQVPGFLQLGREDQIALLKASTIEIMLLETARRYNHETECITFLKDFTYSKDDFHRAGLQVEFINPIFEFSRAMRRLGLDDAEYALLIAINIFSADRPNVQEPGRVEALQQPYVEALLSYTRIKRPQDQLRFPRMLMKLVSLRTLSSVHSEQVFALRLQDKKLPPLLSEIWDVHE

HepG2 [10] = experiment: Cytotoxicity against human HepG2 cells assessed as reduction in cell viability at 2 to 50 uM incubated for 24 hrs by MTT assay; assay type: cell-based; details: hepg2, 24 h
3T3-L1 [11] = experiment: Anti-adipogenic activity in mouse 3T3L1 preadipocytes assessed as decrease in triglyceride accumulation; assay type: functional, cell-based
3T3-L1 [12] = experiment: Anti-adipogenic activity in mouse 3T3L1 preadipocytes assessed as decrease in lipid accumulation by Oil Red O staining-based microscopic analysis; assay type: functional, cell-based
[13] = Agonist activity at LXR in mouse 3T3L1 preadipocytes assessed as increase in ABCA1 mRNA expression at 10 uM by qPCR analysis; assay type: cell-based
[14] = Agonist activity at LXR in mouse 3T3L1 preadipocytes assessed as increase in sREBP-1c mRNA expression at 10 uM by qPCR analysis; assay type: cell-based
3T3-L1 [15] = experiment: Cytotoxicity against mouse 3T3L1 preadipocytes assessed as reduction in cell viability at 2 to 50 uM incubated for 24 hrs by MTT assay; assay type: cell-based; details: 3t3-l1, 24 h
RAW264.7 [16] = experiment: Cytotoxicity against mouse RAW264.7 cells assessed as reduction in cell viability at 2 to 50 µM incubated for 24 hrs by MTT assay; assay type: cell-based; details: raw264.7, 24 h

Row | Compound | fold induction at 20 h, 10 µM [1] | fold change (FC) [2] | Activity (HEK-293T) | Ratio [3] | Activity [4] | inhibition (PBMC) | inhibition (RAW264.7 [5]) | Activity (RAW264.7 [6]) | Activity (Mus musculus) | Activity (HepG2 [7]) | Activity (HepG2 [8]) | Activity [9] | Activity (HepG2 [10]) | Activity (3T3-L1 [11]) | Activity (3T3-L1 [12]) | Activity [13] | Activity [14] | Activity (3T3-L1 [15]) | Activity (RAW264.7 [16])
1 | CC(=O)O[C@H]1CC[C@@]2(C)C(=CC[C@H]3[C@@H]4CC[C@H]([C@H](C)CCC(=O)C(C)C)[C@@]4(C)CC[C@@H]32)C1 | 2.63 | 3 | Non-Toxic | 1.14 |  |  |  |  |  |  |  |  |  |  |  |  |  |  | 
2 | CC(C)C(=O)CC[C@@H](C)[C@H]1CC[C@H]2[C@@H]3CC=C4C[C@@H](O)CC[C@]4(C)[C@H]3CC[C@]12C | 2.36 | 3.85 | Non-Toxic | 1.63 | inactive | Active | Active | Active | Active | Active | Non-Toxic | Active | Non-Toxic | Active | Active | Active | Not Active | Non-Toxic | Non-Toxic
